Results taken from ChEMBL document CHEMBL1151029, “Structure-activity relationships of sulfur-containing triazole antifungals” (1995).
≈ marks a conversion by molar mass, not a printed value.

Columns and labels:
Type in all cases: functional
Aspergillus fumigatus = assay: In vitro antifungal activity against Aspergillus fumigatus MTU6001
[1] = Mean survival days evaluated in vivo for prophylactic efficiency against murine systemic candidiasis at a dose of 10 mg/kg
[2] = Mean survival days evaluated in vivo for prophylactic efficiency against murine systemic aspergillosis at a dose of 50 mg/kg
Candida albicans = assay: In vitro antifungal activity against Candida albicans KB-8
Mus musculus = assay: Mean survival days evaluated in vivo for prophylactic efficiency against murine systemic aspergillosis at a dose of 100 mg/kg

What does the source list for CCCCCS[C@H](C)[C@](O)(Cn1cncn1)c1ccc(F)cc1F?
MIC (Aspergillus fumigatus): 0.78 µg/mL (≈ 2.19 µM); Mean survival [1]: 9.9 days; Mean survival [2]: 2.5 days; MIC (Candida albicans): ≤ 0.013 µg/mL

With CCCCCCCCCCS[C@H](C)[C@](O)(Cn1cncn1)c1ccc(F)cc1F as the compound, how does the MIC (Aspergillus fumigatus) read?
Its MIC is 0.78 µg/mL (≈ 1.83 µM).

And the Mean survival [1]?
Its Mean survival is 9.1 days.

What about the Mean survival [2] of the same compound?
The Mean survival was 8 days.

What about the MIC (Candida albicans) of the same compound?
The MIC was no more than 0.013 µg/mL.

For CCCCCCCCS[C@H](C)[C@](O)(Cn1cncn1)c1ccc(F)cc1F, which MIC (Aspergillus fumigatus) is on record?
Its MIC is 0.39 µg/mL (≈ 0.981 µM).

What about the Mean survival [1] of the same compound?
Its Mean survival is 8.6 days.

And the Mean survival [2]?
The Mean survival was 7.2 days.

What about the MIC (Candida albicans) of the same compound?
The MIC was no more than 0.013 µg/mL.

For CCCCCCCCCCCS[C@H](C)[C@](O)(Cn1cncn1)c1ccc(F)cc1F, which MIC (Aspergillus fumigatus) is on record?
Its MIC is 25 µg/mL (≈ 56.9 µM).

And the Mean survival [1]?
Its Mean survival is 5.8 days.

What about the Mean survival [2] of the same compound?
The Mean survival was 1.6 days.

What about the MIC (Candida albicans) of the same compound?
Its MIC is no more than 0.013 µg/mL.

Which MIC (Aspergillus fumigatus) does the source give for CCCCCCCCCCS(=O)(=O)[C@H](C)[C@](O)(Cn1cncn1)c1ccc(F)cc1F here?
The MIC was less than 0.2 µg/mL.

What about the Mean survival [1] of the same compound?
Its Mean survival is 3.9 days.

And the Mean survival [2]?
Its Mean survival is 1.5 days.

And the MIC (Candida albicans)?
Its MIC is no more than 0.013 µg/mL.

Which results are given for C[C@H]([C@](O)(Cn1cncn1)c1ccc(F)cc1F)S(C)(=O)=O [GENACONAZOLE]?
MIC (Aspergillus fumigatus): 12.5 µg/mL (≈ 37.7 µM); Mean survival [1]: 10 days; Mean survival [2]: 10 days; MIC (Candida albicans): 0.2 µg/mL (≈ 0.604 µM)

Which MIC (Aspergillus fumigatus) does the source give for C[C@@H](SCCCCCCO)[C@](O)(Cn1cncn1)c1ccc(F)cc1F here?
Its MIC is 0.78 µg/mL (≈ 2.02 µM).

And the Mean survival [1]?
Its Mean survival is 2.8 days.

What about the Mean survival [2] of the same compound?
Its Mean survival is 2.8 days.

And the MIC (Candida albicans)?
The MIC was no more than 0.013 µg/mL.

Which MIC (Aspergillus fumigatus) does the source give for CCCS(=O)(=O)[C@H](C)[C@](O)(Cn1cncn1)c1ccc(F)cc1F here?
The MIC was 6.25 µg/mL (≈ 17.4 µM).

And the Mean survival [1]?
The Mean survival was 8.3 days.

What about the Mean survival [2] of the same compound?
The Mean survival was 10 days.

What about the MIC (Candida albicans) of the same compound?
The MIC was 0.2 µg/mL (≈ 0.556 µM).

What does the source list for C[C@H]([C@](O)(Cn1cncn1)c1ccc(F)cc1F)S(=O)(=O)CCCCCCO?
MIC (Aspergillus fumigatus): 100 µg/mL (≈ 240 µM); Mean survival [1]: 1.4 days; Mean survival [2]: 3.1 days; MIC (Candida albicans): 0.39 µg/mL (≈ 0.934 µM)

With C[C@@H](SCCCCCO)[C@](O)(Cn1cncn1)c1ccc(F)cc1F as the compound, how does the MIC (Aspergillus fumigatus) read?
Its MIC is 0.78 µg/mL (≈ 2.1 µM).

What about the Mean survival [1] of the same compound?
Its Mean survival is 9.8 days.

What about the Mean survival [2] of the same compound?
Its Mean survival is 10 days.

What about the MIC (Candida albicans) of the same compound?
The MIC was 0.025 µg/mL (≈ 0.0673 µM).

What does the source list for CCCCCCCCS(=O)(=O)[C@H](C)[C@](O)(Cn1cncn1)c1ccc(F)cc1F?
MIC (Aspergillus fumigatus): 3.13 µg/mL (≈ 7.29 µM); Mean survival [1]: 1.3 days; Mean survival [2]: 1.6 days; MIC (Candida albicans): ≤ 0.013 µg/mL

Which MIC (Aspergillus fumigatus) does the source give for CCCCCCCCCS[C@H](C)[C@](O)(Cn1cncn1)c1ccc(F)cc1F here?
The MIC was 3.13 µg/mL (≈ 7.61 µM).

What about the Mean survival [1] of the same compound?
The Mean survival was 5 days.

What about the Mean survival [2] of the same compound?
Its Mean survival is 1.8 days.

What about the MIC (Candida albicans) of the same compound?
Its MIC is no more than 0.013 µg/mL.

Which MIC (Aspergillus fumigatus) does the source give for CCS[C@H](C)[C@](O)(Cn1cncn1)c1ccc(F)cc1F here?
The MIC was 1.56 µg/mL (≈ 4.98 µM).

And the Mean survival [1]?
The Mean survival was 10 days.

And the Mean survival [2]?
The Mean survival was 9.8 days.

And the MIC (Candida albicans)?
The MIC was 0.025 µg/mL (≈ 0.0798 µM).

Which MIC (Aspergillus fumigatus) does the source give for C[C@H]([C@](O)(Cn1cncn1)c1ccc(F)cc1F)S(=O)(=O)CCCCCCCCO here?
The MIC was 6.25 µg/mL (≈ 14 µM).

And the Mean survival [1]?
Its Mean survival is 0.5 days.

What about the Mean survival [2] of the same compound?
The Mean survival was 3 days.

And the MIC (Candida albicans)?
The MIC was 0.1 µg/mL (≈ 0.224 µM).

For CCCCS(=O)(=O)[C@H](C)[C@](O)(Cn1cncn1)c1ccc(F)cc1F, which MIC (Aspergillus fumigatus) is on record?
The MIC was 12.5 µg/mL (≈ 33.5 µM).

And the Mean survival [1]?
The Mean survival was 7.6 days.

What about the Mean survival [2] of the same compound?
The Mean survival was 4.1 days.

And the MIC (Candida albicans)?
The MIC was 0.2 µg/mL (≈ 0.536 µM).

Which MIC (Aspergillus fumigatus) does the source give for C[C@H]([C@](O)(Cn1cncn1)c1ccc(F)cc1F)S(=O)(=O)CCCCCCCO here?
Its MIC is 25 µg/mL (≈ 57.9 µM).

And the Mean survival [1]?
Its Mean survival is 1 days.

And the Mean survival [2]?
The Mean survival was 1.2 days.

And the MIC (Candida albicans)?
The MIC was 0.39 µg/mL (≈ 0.904 µM).

Which MIC (Aspergillus fumigatus) does the source give for CCCCCCS[C@H](C)[C@](O)(Cn1cncn1)c1ccc(F)cc1F here?
The MIC was 0.39 µg/mL (≈ 1.06 µM).

And the Mean survival [1]?
Its Mean survival is 9.2 days.

What about the Mean survival [2] of the same compound?
The Mean survival was 6.8 days.

What about the MIC (Candida albicans) of the same compound?
The MIC was no more than 0.013 µg/mL.

Which results are given for C[C@@H](SCCCCCCCO)[C@](O)(Cn1cncn1)c1ccc(F)cc1F?
MIC (Aspergillus fumigatus): 0.78 µg/mL (≈ 1.95 µM); Mean survival [1]: 10 days; Mean survival [2]: 9.7 days; MIC (Candida albicans): ≤ 0.013 µg/mL

For CCCCCCCS[C@H](C)[C@](O)(Cn1cncn1)c1ccc(F)cc1F, which MIC (Aspergillus fumigatus) is on record?
The MIC was no more than 0.2 µg/mL.

And the Mean survival [1]?
Its Mean survival is 10 days.

What about the Mean survival [2] of the same compound?
Its Mean survival is 2.2 days.

And the MIC (Candida albicans)?
Its MIC is no more than 0.013 µg/mL.

With C[C@@H](SCCCCO)[C@](O)(Cn1cncn1)c1ccc(F)cc1F as the compound, how does the MIC (Aspergillus fumigatus) read?
Its MIC is 6.25 µg/mL (≈ 17.5 µM).

And the Mean survival [1]?
The Mean survival was 2.5 days.

What about the Mean survival [2] of the same compound?
The Mean survival was 3.2 days.

What about the MIC (Candida albicans) of the same compound?
Its MIC is 0.2 µg/mL (≈ 0.56 µM).

For CCCCCCCCCCCS(=O)(=O)[C@H](C)[C@](O)(Cn1cncn1)c1ccc(F)cc1F, which MIC (Aspergillus fumigatus) is on record?
The MIC was 3.13 µg/mL (≈ 6.64 µM).

And the Mean survival [1]?
Its Mean survival is 1.1 days.

And the Mean survival [2]?
Its Mean survival is 1.6 days.

What about the MIC (Candida albicans) of the same compound?
Its MIC is no more than 0.013 µg/mL.

Which MIC (Aspergillus fumigatus) does the source give for CCCCS[C@H](C)[C@](O)(Cn1cncn1)c1ccc(F)cc1F here?
The MIC was 0.78 µg/mL (≈ 2.28 µM).

And the Mean survival [1]?
The Mean survival was 9.9 days.

What about the Mean survival [2] of the same compound?
Its Mean survival is 2.5 days.

What about the MIC (Candida albicans) of the same compound?
Its MIC is no more than 0.013 µg/mL.

What does the source list for CCCCCCCCCS(=O)(=O)[C@H](C)[C@](O)(Cn1cncn1)c1ccc(F)cc1F?
MIC (Aspergillus fumigatus): 0.78 µg/mL (≈ 1.76 µM); Mean survival [1]: 0.6 days; Mean survival [2]: 1 days; MIC (Candida albicans): ≤ 0.013 µg/mL

What does the source list for CCCCCCS(=O)(=O)[C@H](C)[C@](O)(Cn1cncn1)c1ccc(F)cc1F?
MIC (Aspergillus fumigatus): 12.5 µg/mL (≈ 31.1 µM); Mean survival [1]: 2.6 days; Mean survival [2]: 1.6 days; MIC (Candida albicans): 0.1 µg/mL (≈ 0.249 µM)

For CCCCCCCS(=O)(=O)[C@H](C)[C@](O)(Cn1cncn1)c1ccc(F)cc1F, which MIC (Aspergillus fumigatus) is on record?
The MIC was 6.25 µg/mL (≈ 15 µM).

And the Mean survival [1]?
The Mean survival was 0.9 days.

And the Mean survival [2]?
Its Mean survival is 1.1 days.

And the MIC (Candida albicans)?
Its MIC is no more than 0.013 µg/mL.

What does the source list for C[C@@H](SCCCCCCCCO)[C@](O)(Cn1cncn1)c1ccc(F)cc1F?
MIC (Aspergillus fumigatus): ≤ 0.2 µg/mL; Mean survival [1]: 4.3 days; Mean survival [2]: 3.5 days; MIC (Candida albicans): ≤ 0.013 µg/mL

What does the source list for CCCS[C@H](C)[C@](O)(Cn1cncn1)c1ccc(F)cc1F?
MIC (Aspergillus fumigatus): 12.5 µg/mL (≈ 38.2 µM); Mean survival [1]: 4.4 days; Mean survival [2]: 1 days; MIC (Candida albicans): 0.1 µg/mL (≈ 0.305 µM)

Which MIC (Aspergillus fumigatus) does the source give for CCCCCS(=O)(=O)[C@H](C)[C@](O)(Cn1cncn1)c1ccc(F)cc1F here?
The MIC was 25 µg/mL (≈ 64.5 µM).

And the Mean survival [1]?
The Mean survival was 0.4 days.

What about the Mean survival [2] of the same compound?
The Mean survival was 3.6 days.

And the MIC (Candida albicans)?
The MIC was 0.2 µg/mL (≈ 0.516 µM).

What does the source list for OC(Cn1cncn1)(Cn1cncn1)c1ccc(F)cc1F [FLUCONAZOLE]?
Mean survival (Mus musculus): 2.8 days; MIC (Aspergillus fumigatus): 400 µg/mL (≈ 1310 µM); Mean survival [1]: 10 days; MIC (Candida albicans): 0.78 µg/mL (≈ 2.55 µM)
